We go through 42 molecules from the OPERA property sets (Mansouri et al. 2018).

As usually defined, the logP is a log measure of how a compound divides between an organic and an aqueous phase. The low end stands for a more hydrophilic compound, the high end for a more lipophilic compound.

Where a SMILES comes first, the peptide text is derived from it.

The molecule `O=C1N=C(N2CCOCC2)CN1c1ccc(Cl)cc1` yielded a logP of 1.5.
In the case of `Oc1ccc(CNc2ncnc3nc[nH]c23)cc1`, the log partition coefficient (logP) was found to be 1.55.
As to `CC(C)C(N)C(=O)NCC(=O)NC(Cc1ccccc1)C(=O)NC(Cc1ccccc1)C(=O)O` (configuration not stated) (H-VGFF-OH; configuration not given here), the logP is -0.51.
As for `CNC(=O)Cn1cccc(O)c1=O`, the figure is -1.15.
Regarding `CC(=O)NC(CCCN(Cc1ccccc1)C(=O)N(C)N=O)C(=O)NCc1ccccc1` (configuration not stated), the logP was found to be 2.
As for `CCCCCCCCNC1=NS(=O)N=C1NCCSCc1ccc(CN(C)C)o1` (configuration not stated), the figure is 4.47; as for `Cc1ccc(-n2nnnc2N)cc1Cl`, 1.89.
As for `C=CCC(=O)Nc1ccc(Cl)c(Cl)c1`, the figure is 3.63.
On to `ClCC1(C(Cl)Cl)C2C(Cl)CC1(C(Cl)Cl)C(Cl)C2Cl` (configuration not stated), for which the logP came out at 5.19.
`Cc1nccc2c3ccccc3n(C)c12` yielded a log partition coefficient (logP) of 3.01.
In turn, `Cc1cccc(C)c1Cc1cn[nH]c1` had a logP of 3.6.
In the case of `Cc1cc(Cl)c(C(C)C)c(Cl)c1Cl` it was 6.2; in that of `CC(N)C(=O)NC(Cc1ccccc1)C(=O)NCC(=O)NC(C(=O)NC(Cc1ccccc1)C(=O)O)C(C)C` (configuration not stated) (H-AFGVF-OH; configuration not given here), -0.59; in that of `COC(=O)c1ccc(C(=O)OC)c(N)c1`, 2.28.
On to `CCN(CCO)CCCOc1cc2ncnc(Nc3cc(CC(=O)Nc4cccc(F)c4F)[nH]n3)c2cc1OC`, for which the logP was 3.5.
As to `CC(=NNC(=O)c1ccc(Br)cc1)c1cnccn1`, the lipophilicity (logP) is 2.9.
In the case of `OCC1OC(Oc2ccc(-c3ccccc3)cc2)C(O)C(O)C1O` (configuration not stated) it was 1.79; in that of `Cc1cc(=O)oc2c(C)c3occc3cc12`, 2.82; in that of `COc1ccc2cc(C(C)C(=O)OCCCCOC(C)=O)ccc2c1` (configuration not stated), 3.3.
As to `CCOC(=O)c1cccc(N(C)C)c1`, the log partition coefficient (logP) is 3.19.
On to `Cc1coc2cc3oc(=O)ccc3c(C)c12`, for which the logP came to 2.79.
On to `O=c1cc(CSC2CCCCC2)occ1O`, for which the logP is 1.75.
`CSc1ncc([N+](=O)[O-])n1C` returned a logP of 0.94.
Molecule `NCC(=O)NC(Cc1ccccc1)C(=O)NC(Cc1ccccc1)C(=O)O` (stereo not drawn) (H-Gly-Phe-Phe-OH; configuration not given here) came in with a logP of -1.33.
As for `CCNC(=S)NN=C(c1cccc([N+](=O)[O-])c1)c1ccccn1`, the figure is 2.53; as for `O=C(NC1CCCCCC1)NS(=O)(=O)c1cnccc1NC1CCCCC1`, 4.62.
`Clc1nc(-c2ccccc2)nc2ccccc12` registered a logP of 4.47.
Regarding `CCN(CC)CCC(=O)Nc1c(C)cc(N)cc1C`, the lipophilicity (logP) came out at 0.93.
`Cc1coc2cc3oc(=O)ccc3cc12` gave a logP of 2.47.
The molecule `CC(C)CNc1ccncc1S(=O)(=O)NC(=NC#N)NC(C)C` registered a logP of 0.88.
Molecule `CC(C)NC(CO)C(O)c1ccccc1` (configuration not stated) showed a logP of 1.19.
In turn, `COC1CC(OC2C(O)CC(OC3CCC4(C)C(CCC5C4CC(O)C4(C)C(C6=CC(=O)OC6)CCC54O)C3)OC2C)OC(C)C1OC1CC(O)C(O)C(C)O1` (configuration not stated) displayed a logP of 1.8.
`O=[N+]([O-])c1cccc(CNc2ncnc3nc[nH]c23)c1`: the log partition coefficient (logP) came out at 2.03.
In turn, `CCCCC(=O)NCCCCCN(O)C(=O)CCC(=O)NCCCCCN(O)C(=O)CCC(=O)NCCCCCN(O)C(C)=O` registered a log partition coefficient (logP) of 0.88.
Take `O=C(O)CCCCON=C(c1ccccc1)c1ccncn1`: the log partition coefficient (logP) turned out to be 2.27.
As for `Cc1ccc(CO)c(C=NNC(=O)c2cccc(F)c2)c1O`, the figure is 3.41.
`OC(CNCC1COc2ccccc2O1)CON=C(C1CC1)C1CC1` (configuration not stated) returned a log partition coefficient (logP) of 2.22.
The molecule `CC(CC(=O)c1ccc(-c2ccc(F)cc2F)cc1)C(=O)O` (configuration not stated) returned a lipophilicity (logP) of 3.78.
For `OCCCCNc1ncnc2c1ncn2C1OC(CO)C(O)C1O` (configuration not stated), the logP was -0.62.
Turning to `Cc1oc2c(C)cc3ccc(=O)oc3c2c1C`, the logP came to 3.34.
`CCc1cccc(CNc2[nH]cnc3ncnc2-3)c1` returned a logP of 2.98.
In the case of `Cc1c(O)c(=O)ccn1CCCOC(=O)c1ccccc1` it was 1.25.
